pIC50, pKd: −log10 of the molar value. Read-outs that look alike come from different tables or passages of the source.
How the values were obtained:
[1] = target: GDP-bound NRAS wild-type protein (Homo sapiens, UniProt P01111); experiment: Binding to NRAS by surface plasmon resonance (SPR), Single Cycle Kinetics; details: for NRAS/KRAS (ratio of KD value for NRAS to KD value for KRAS): SPR, GDP-bound NRAS wild-type protein vs GDP-bound KRAS wild-type protein; for NRAS/KRAS (ratio of KD value with respect to GDP-bound NRAS wild-type protein to KD value with respect to KRAS): SPR KD ratio NRAS/KRAS, class symbols
[2] = target: GDP-bound HRAS wild-type protein (Homo sapiens, UniProt P01112); experiment: Binding to HRAS by surface plasmon resonance (SPR), Single Cycle Kinetics; details: for HRAS/KRAS (ratio of KD value for HRAS to KD value for KRAS): SPR, GDP-bound HRAS wild-type protein vs GDP-bound KRAS wild-type protein; for HRAS/KRAS (ratio of KD value with respect to GDP-bound HRAS wild-type protein to KD value with respect to KRAS): SPR KD ratio HRAS/KRAS, class symbols
[3] = test system: human lung cancer strain NCI-H441;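 further: cell proliferation inhibition after four days measured by CellTiter-Glo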
[4] = target: GDP-bound KRAS wild-type protein (Homo sapiens, UniProt P01116); experiment: Binding to KRAS by surface plasmon resonance (SPR), Single Cycle Kinetics; details: GDP-bound KRAS wild-type protein, read-out: KRAS KD
[5] = SPR Single Cycle Kinetics, 1:1 binding model
[6] = SPR, Single Cycle Kinetics, 1:1 binding model

Sequence of GDP-bound HRAS wild-type protein (P01112 whole entry): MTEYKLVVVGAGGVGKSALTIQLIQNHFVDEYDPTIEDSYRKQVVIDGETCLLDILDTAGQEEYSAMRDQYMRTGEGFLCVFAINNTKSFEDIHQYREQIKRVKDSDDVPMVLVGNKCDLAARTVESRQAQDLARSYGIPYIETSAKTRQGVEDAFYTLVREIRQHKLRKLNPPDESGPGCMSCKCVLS
Sequence of GDP-bound NRAS wild-type protein (P01111 whole entry): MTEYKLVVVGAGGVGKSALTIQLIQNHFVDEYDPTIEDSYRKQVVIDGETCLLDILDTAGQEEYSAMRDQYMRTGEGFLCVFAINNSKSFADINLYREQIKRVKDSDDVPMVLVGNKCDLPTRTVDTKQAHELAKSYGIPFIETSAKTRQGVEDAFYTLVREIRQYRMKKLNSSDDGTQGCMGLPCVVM
Sequence of GDP-bound KRAS wild-type protein (P01116 whole entry): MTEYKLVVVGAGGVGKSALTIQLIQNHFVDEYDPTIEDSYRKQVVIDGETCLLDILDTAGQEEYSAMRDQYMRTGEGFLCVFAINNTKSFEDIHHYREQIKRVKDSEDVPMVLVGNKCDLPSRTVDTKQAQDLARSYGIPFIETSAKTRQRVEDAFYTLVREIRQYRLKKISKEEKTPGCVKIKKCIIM

| Compound | NRAS/KRAS (ratio of KD value for NRAS to KD value for KRAS) [1] | HRAS/KRAS (ratio of KD value for HRAS to KD value for KRAS) [2] | pIC50 [3] | pKd ([4]; SPR, Single Cycle Kinetics) | NRAS/KRAS (ratio of KD value with respect to GDP-bound NRAS wild-type protein to KD value with respect to KRAS) [1] | HRAS/KRAS (ratio of KD value with respect to GDP-bound HRAS wild-type protein to KD value with respect to KRAS) [2] | pKd [4, 5] | NRAS/KRAS (ratio of KD value for NRAS to KD value for KRAS) ([1]; KD ratio class) | HRAS/KRAS (ratio of KD value for HRAS to KD value for KRAS) ([2]; KD ratio class) | pKd [4, 6] |
| --- | --- | --- | --- | --- | --- | --- | --- | --- | --- | --- |
| C#CCN1CC(=O)N(C)[C@H]2C/C=C\CCN(C2=O)[C@@H](Cc2ccc(C(F)(F)F)cc2)C(=O)N(C)CC(=O)N[C@@H](CCc2ccc(C(F)(F)F)c(OC)c2)C(=O)N2C[C@H](OCC)C[C@H]2C(=O)NC2(CC(C)(C)C2)C(=O)N(C)[C@@H](C2CCCC2)C(=O)N(C)[C@H](C(=O)N(C)C)CC(=O)N(C)[C@@H](CC)C(=O)N[C@@H]([C@@H](C)CC)C1=O [PP2091] | A (a compound having 10 or more and less than 20 is denoted as A) | B (a compound having 3 or more and less than 10 is denoted as B) | 8.34 | 9.74 |  |  |  |  |  |  |
| CCC[C@H]1C(=O)N[C@@H]([C@@H](C)CC)C(=O)N(C)CC(=O)N(C)[C@H]2C/C=C\CCN(C2=O)[C@@H](CC2CCC(F)(F)CC2)C(=O)N(C)CC(=O)N[C@@H](CCc2ccc(C(F)(F)F)c(OC)c2)C(=O)N2C[C@@H](C)C[C@H]2C(=O)NC2(CC(C)(C)C2)C(=O)N(C)[C@@H](C(CC)CC)C(=O)N(C)[C@H](C(=O)N(C)C)CC(=O)N1C [PP2497] | A (a compound having 10 or more and less than 20 is denoted as A) | A (a compound having 10 or more and less than 20 is denoted as A) | 7.07 | 8.82 |  |  |  |  |  |  |
| CCOC[C@H]1C(=O)N[C@@H]([C@@H](C)CC)C(=O)N(C)CC(=O)N(C)[C@H]2C/C=C\CCN(C2=O)[C@@H](Cc2ccc(C(F)(F)F)cc2)C(=O)N(C)CC(=O)N[C@@H](CCc2ccc(C(F)(F)F)c(OC)c2)C(=O)N2C[C@H](OCC)C[C@H]2C(=O)NC2(CC(C)(C)C2)C(=O)N(C)[C@@H](CC(C)(C)C)C(=O)N(C)[C@H](C(=O)N(C)C)CC(=O)N1C [PP2736] |  |  | 8.12 |  | A (a compound having 10 or more and less than 20 is denoted as A) | A (a compound having 10 or more and less than 20 is denoted as A) | 10.21 |  |  |  |
| CC[C@H](C)[C@@H]1NC(=O)[C@H](CC)N(C)C(=O)C[C@@H](C(=O)N(C)C)N(C)C(=O)[C@H](C2CCCC2)N(C)C(=O)C2(CCC2)NC(=O)[C@@H]2C[C@@H](C(F)(F)F)CN2C(=O)[C@H](CCc2cc(F)c(C(F)(F)F)c(F)c2)NC(=O)CN(C)C(=O)[C@H](CC2CCC(F)(F)CC2)N2CC/C=C\C[C@@H](C2=O)N(C)C(=O)CN(C)C1=O [PP1451, (2S,8S,12R,14S,20S,23S,27S,30S,36S,38Z)-20-cyclopentyl-2-[(4,4-difluorocyclohexyl)methyl]-8-[2-[3,5-difluoro-4-(trifluoromethyl)phenyl]ethyl]-27-ethyl-N,N,4,19,22,26,32,35-octamethyl-30-[(1S)-1-methylpropyl]-3,6,9,15,18,21,25,28,31,34,42-undecaoxo-12-(trifluoromethyl)spiro[1,4,7,10,16,19,22,26,29,32,35-undecazatricyclo[34.5.1.0^10,14]dotetracont-38-ene-17,1′-cyclobutane]-23-carboxamide] |  |  | 7.21 |  |  |  |  | A (a compound having 10 or more and less than 20 is denoted as A) | A (a compound having 10 or more and less than 20 is denoted as A) | 9.85 |
| CC[C@H](C)[C@@H]1NC(=O)[C@H](CC)N(C)C(=O)C[C@@H](C(=O)N(C)C)N(C)C(=O)[C@H](C2CCCC2)N(C)C(=O)C2(CCCC2)NC(=O)[C@@H]2CCCN2C(=O)[C@H](CCc2cc(F)c(C(F)(F)F)c(F)c2)NC(=O)CN(C)C(=O)[C@H](Cc2ccc(C(F)(F)F)cc2)N2C[C@H](C)CC[C@@H](C2=O)N(C)C(=O)CN(C)C1=O [PP1382] |  |  | 7.80 |  |  |  |  | B (a compound having 3 or more and less than 10 is denoted as B) | B (a compound having 3 or more and less than 10 is denoted as B) | 10.17 |
| CCO[C@@H]1C[C@H]2C(=O)NC3(CCC3)C(=O)N(C)[C@@H](C3CCCC3)C(=O)N(C)[C@H](C(=O)N(C)C)CC(=O)N(C)[C@@H](CC(C)C)C(=O)N[C@@H]([C@@H](C)CC)C(=O)N(C)CC(=O)N(C)[C@H]3C/C=C\CCN(C3=O)[C@@H](CC3CCC(F)(F)CC3)C(=O)N(C)CC(=O)N[C@@H](CCc3cc(F)c(C(F)(F)F)c(F)c3)C(=O)N2C1 [PP1453, (2S,8S,12R,14S,20S,23S,27S,30S,36S,38Z)-20-cyclopentyl-2-[(4,4-difluorocyclohexyl)methyl]-8-[2-[3,5-difluoro-4-(trifluoromethyl)phenyl]ethyl]-12-ethoxy-27-isobutyl-N,N,4,19,22,26,32,35-octamethyl-30-[(1S)-1-methylpropyl]-3,6,9,15,18,21,25,28,31,34,42-undecaoxo-spiro[1,4,7,10,16,19,22,26,29,32,35-undecazatricyclo[34.5.1.0^10,14]dotetracont-38-ene-17,1′-cyclobutane]-23-carboxamide] |  |  | 7.87 |  |  |  |  | A (a compound having 10 or more and less than 20 is denoted as A) | A (a compound having 10 or more and less than 20 is denoted as A) | 9.92 |
| CCC[C@H]1C(=O)N[C@@H]([C@@H](C)CC)C(=O)N(C)CC(=O)N(C)[C@H]2C/C=C\CCN(C2=O)[C@@H](Cc2ccc(C(F)F)cc2)C(=O)N(C)CC(=O)N[C@@H](CCc2ccc(Cl)c(Cl)c2)C(=O)N2C[C@H](OC(C)C)C[C@H]2C(=O)NC2(CC(C)(C)C2)C(=O)N(C)[C@@H](C(CC)CC)C(=O)N(C)[C@H](C(=O)N(C)C)CC(=O)N1C [PP2535] |  |  | 7.57 |  | AA (a compound having 20 or more is denoted as AA) | A (a compound having 10 or more and less than 20 is denoted as A) | 9.27 |  |  |  |
| CCO[C@@H]1C[C@H]2C(=O)NC3(CCCC3)C(=O)N(C)[C@@H](C3CCCC3)C(=O)N(C)[C@H](C(=O)N(C)C)CC(=O)N(C)[C@@H](CC)C(=O)N[C@@H]([C@@H](C)CC)C(=O)N(C)CC(=O)N(C)[C@H]3C[C@@H](C)[C@@H](C)CN(C3=O)[C@@H](Cc3ccc(C(F)(F)F)cc3)C(=O)N(C)CC(=O)N[C@@H](CCc3cc(F)c(C(F)(F)F)c(F)c3)C(=O)N2C1 [PP1352] |  |  | 8.34 |  |  |  |  | A (a compound having 10 or more and less than 20 is denoted as A) | B (a compound having 3 or more and less than 10 is denoted as B) | 10.62 |
| CC[C@H](C)[C@@H]1NC(=O)[C@H](CC2CCC2)N(C)C(=O)C[C@@H](C(=O)N(C)C)N(C)C(=O)[C@H](C2CCCC2)N(C)C(=O)C2(CCCC2)NC(=O)[C@@H]2CCCN2C(=O)[C@H](CCc2ccc(C(F)(F)F)c(Cl)c2)NC(=O)CN(C)C(=O)[C@H](Cc2ccc(C(F)(F)F)cc2)N2C[C@H](C)CC[C@@H](C2=O)N(C)C(=O)CN(C)C1=O [PP1342] |  |  | 8.30 |  |  |  |  | B (a compound having 3 or more and less than 10 is denoted as B) | B (a compound having 3 or more and less than 10 is denoted as B) | 10.04 |
| CCO[C@@H]1C[C@H]2C(=O)NC3(CC(C)(C)C3)C(=O)N(C)[C@@H](C(CC)CC)C(=O)N(C)[C@H](C(=O)N(C)C)CC(=O)N(C)[C@@H](COC)C(=O)N[C@@H]([C@@H](C)CC)C(=O)N(C)CC(=O)N(C)[C@H]3C/C=C\CCN(C3=O)[C@@H](CC3CCCCC3)C(=O)N(C)CC(=O)N[C@@H](CCc3ccc(C(F)(F)F)c(Cl)c3)C(=O)N2C1 [PP2468] | AA (a compound having 20 or more is denoted as AA) | A (a compound having 10 or more and less than 20 is denoted as A) | 7.14 | 8.89 |  |  |  |  |  |  |
| CCO[C@@H]1C[C@H]2C(=O)NC3(CC(C)(C)C3)C(=O)N(C)[C@@H](C(CC)CC)C(=O)N(C)[C@H](C(=O)N(C)C)CC(=O)N(C)[C@@H](COC)C(=O)N[C@@H]([C@@H](C)CC)C(=O)N(C)CC(=O)N(C)[C@H]3C/C=C\CCN(C3=O)[C@@H](CC3CCCCC3)C(=O)N(C)CC(=O)N[C@@H](CCc3ccc(C(F)(F)F)c(OC)c3)C(=O)N2C1 [PP2452] | A (a compound having 10 or more and less than 20 is denoted as A) | A (a compound having 10 or more and less than 20 is denoted as A) | 7.36 | 8.82 |  |  |  |  |  |  |

From patent US20240158446A1, “CYCLIC COMPOUND HAVING SELECTIVE INHIBITORY ACTION ON KRAS OVER HRAS AND NRAS” (CHUGAI SEIYAKU KABUSHIKI KAISHA, priority 2021, published 2024)
